Test results: article PMC3682544, “Structural Analysis of Collagen Type I Interactions with Human Fibronectin Reveals a Cooperative Binding Mode” (The Journal of Biological Chemistry, 2013)
Read-outs that look alike come from different tables or passages of the source. Values belong to the compound of their own block, whether it stands above or below them. Square brackets hold non-standard residues; d marks the D form. Ends that are not written are not given here. Peptide text beside a SMILES is read from it. * marks the point of attachment. 5FAM = O=C1OC2(c3ccc(O)cc3Oc3cc(O)ccc32)c2ccc(C(=O)*)cc21; Hyp = O=C(O)[C@@H]1C[C@@H](O)CN1

Legend:
[1] = biological target: T1, GBD (gelatin-binding domain, ^6FnI^1–2FnII^7–9FnI, residues 305–608) of human FN (Homo sapiens, UniProt P02751, H307D/N528Q/R534K); assay: Fluorescence polarization titrations of 5-carboxyfluorescein-labelled collagen peptides with GBD; conditions: FA: fluorescence polarization, 75 nM N-terminal 5-carboxyfluorescein peptide, increasing protein, PBS, 25 °C, single binding model
T1 construct: FN fragments corresponding to residues 305–608 (GBD); made in house
T1 sequence (P02751 305-608 H307D/N528Q/R534K): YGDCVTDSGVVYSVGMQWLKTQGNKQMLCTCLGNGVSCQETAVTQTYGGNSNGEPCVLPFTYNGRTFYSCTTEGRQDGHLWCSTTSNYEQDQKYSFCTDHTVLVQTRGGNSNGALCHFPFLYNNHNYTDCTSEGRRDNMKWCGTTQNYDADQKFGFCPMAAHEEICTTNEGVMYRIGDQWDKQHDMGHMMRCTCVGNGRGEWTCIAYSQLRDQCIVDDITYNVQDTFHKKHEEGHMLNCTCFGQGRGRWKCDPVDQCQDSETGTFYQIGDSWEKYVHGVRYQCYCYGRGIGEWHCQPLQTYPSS
Excerpt: (§1) FN fragments corresponding to residues 305–608 (GBD), 305–515 (^6FnI^1–2FnII^7FnI), and 516–608 (^8–9FnI) and bearing single amino acid substitutions to improve solubility and protein yields (H307D, N528Q, and R534K) were produced as described previously ([7], [26], [32]). Synthetic collagen peptides were purchased from GL Biochem (Shanghai, China); their sequences are provided in Table 1, and unless fluorescently tagged, they included a C-terminal tyrosine residue for UV determination of peptide concentration. Fluorescent peptides had 5-carboxyfluorescein attached to the N-terminal amine group.
Fluorescence polarization measurements were performed at 25 °C in PBS using SpectraMax M5 (Molecular Devices) and PHERAstar FS (BMG Labtech) fluorometers. […] Differences in fluorescence polarization were fit using a single binding model in the program Origin (OriginLab) ([33]).

[2] = biological target: T2, ^8–9FnI (FN residues 516–608) (Homo sapiens, UniProt P02751, N528Q/R534K); assay: ^1H-^15N heteronuclear single quantum correlation NMR titrations with ^8–9FnI; format: binding; conditions: NMR ^1H-^15N HSQC titration, PBS pH 7.2, 25 °C; for Kd: single binding event fit
T2 construct: and 516–608 (^8–9FnI); made in house
Excerpt: as §1
(§2) NMR spectrometers used superconducting magnets (Oxford Instruments) at 950- and 500-MHz proton resonance frequencies (home-built or Bruker AVANCE II consoles and room temperature or cryogenic probe heads, respectively). Spectra were recorded in PBS (20 mM Na2HPO4 (pH 7.2) and 150 mM NaCl) with 1% 4,4-dimethyl-4-silapentane-1-sulfonic acid as a calibration standard. Experiment temperatures were optimized to avoid resonance broadening due to intermediate exchange phenomena and corresponded to 25 °C (^8–9FnI) or 37 °C (^6FnI^1–2FnII^7FnI). Sequential chemical shift assignments were performed earlier ([7], [26]). Analysis of spectral perturbations upon protein interactions and determination of equilibrium parameters were performed as described ([33]).

[3] = biological target: T2, ^8–9FnI (FN residues 516–608); conditions: NMR titration; cited from earlier work
Excerpt: TABLE 1 KD values for collagen I peptide binding to FN fragments α1 and α2 chain numbering is taken to begin at the estimated start of the helical region. “O” in peptide sequences denotes 4-hydroxyproline. NMR, ^1H-^15N heteronuclear single quantum correlation NMR titrations; FA, fluorescence polarization titrations using N-terminal 5-carboxyfluorescein labeling. In titrations where no binding was | column: KD / ^8–9FnI || To firmly establish the elusive molecular interplay between the GBD and the most common collagen (type I), we first need to understand the exact nature of the binding site. […] At a distance of ∼1/10 (D-period 1, peptides AN and CN) or 3/4 (D-period 4, peptides BN and DN) from the N terminus of the triple hel ... || FIGURE 3. GBD-binding sites on collagen type I. A, schematic representation of the collagen type I α1 and α2 chains and the two FN-binding sites at 1/10 and 3/4 sequence distance from the collagen N terminus. ^8–9FnI-binding sites (peptides AN, BN, CN, and DN) are shown in blue, with the sequences immediately C-terminal thereof (peptides AC, BC, CC, and DC) shown in red. Dissociation constants are indicated. Highlighted in green is the only site where the two GBD subfragments, ^6FnI^1–2FnII^7FnI and ^8–9FnI, bind collagen type I cooperatively. B, amino acid sequences of peptides A–D. Conserved ...
Target sequence in this assay (P02751 516-608 N528Q/R534K): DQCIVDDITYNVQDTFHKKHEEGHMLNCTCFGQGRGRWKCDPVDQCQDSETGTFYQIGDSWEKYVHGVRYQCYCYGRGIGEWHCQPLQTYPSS

[4] = biological target: collagen type I alpha1 peptide A, G70-G118, 5-carboxyfluorescein labelled; assay: fluorescence polarisation; 75 nM 5-carboxyfluorescein-labelled peptide, increasing concentrations of protein, 96-well plates, 25 °C, PBS; single binding model
[5] = biological target: collagen type I alpha1 peptide B, G772-G820, 5-carboxyfluorescein labelled; assay: as above
[6] = biological target: collagen type I alpha2 peptide C, Q72-G118, 5-carboxyfluorescein labelled; assay: as above
[7] = biological target: collagen type I alpha2 peptide D, G772-G820, 5-carboxyfluorescein labelled; assay: as above
[8] = biological target: fibronectin modules 8-9FnI, residues 516-608 (human) (UniProt P02751); assay: NMR titration; 1H-15N HSQC of 8-9FnI, collagen peptide titrated in, PBS (20 mM Na2HPO4 pH 7.2, 150 mM NaCl), 25 °C; single binding event
[9] = biological target: T3, ^6FnI^1–2FnII^7FnI (FN residues 305–515) (Homo sapiens, UniProt P02751, H307D); assay: ^1H-^15N heteronuclear single quantum correlation NMR titrations with ^6FnI^1–2FnII^7FnI; format: binding; conditions: NMR ^1H-^15N HSQC titration, chemical shift analysis, PBS pH 7.2, 37 °C
T3 construct: 305–515 (^6FnI^1–2FnII^7FnI); made in house
T3 sequence (P02751 305-515 H307D): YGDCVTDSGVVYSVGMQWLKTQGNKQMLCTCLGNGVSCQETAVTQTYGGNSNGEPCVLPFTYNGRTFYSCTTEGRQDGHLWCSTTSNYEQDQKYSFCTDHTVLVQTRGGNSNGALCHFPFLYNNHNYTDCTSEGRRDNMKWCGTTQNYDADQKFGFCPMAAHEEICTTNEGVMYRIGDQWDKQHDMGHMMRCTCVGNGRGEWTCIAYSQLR
Excerpt: as §1, §2

Compound: 5FAM-QGARGF[Hyp]GT[Hyp]GL[Hyp]GFKGIRGHNGLDGLKGQ[Hyp]GA[Hyp]GVKGE[Hyp]GA[Hyp]GENG [C]
Kd [1]: 25.6 ± 2.6 µM

Compound: CC(C)C[C@H](NC(=O)CNC(=O)[C@H](CO)NC(=O)[C@@H](NC(=O)CNC(=O)[C@H](CCCNC(=N)N)NC(=O)[C@H](CCC(N)=O)NC(=O)CN)C(C)C)C(=O)N1C[C@H](O)C[C@H]1C(=O)NCC(=O)N[C@@H](CCC(N)=O)C(=O)N[C@@H](CCCNC(=N)N)C(=O)NCC(=O)N[C@@H](CCC(=O)O)C(=O)N[C@@H](CCCNC(=N)N)C(=O)NCC(=O)N[C@@H](Cc1ccccc1)C(=O)N1C[C@H](O)C[C@H]1C(=O)NCC(=O)N[C@@H](CC(C)C)C(=O)N1C[C@H](O)C[C@H]1C(=O)NCC(=O)N[C@@H](Cc1ccc(O)cc1)C(=O)O [BN-S783V] (H-GQRGVSGL[Hyp]GQRGERGF[Hyp]GL[Hyp]GY-OH)
KD ^8–9FnI (NMR interaction regime, in words) [2]: fast interaction regime
Kd [2]: 96.5 ± 11.4 µM

Compound: 5FAM-GPQGIAGQRGVVGL[Hyp]GQRGERGF[Hyp]GL[Hyp]GPSGE[Hyp]GKQGPSGASGERGP[Hyp]G [B]
Kd [1]: 15.2 ± 2 µM

Compound: BN: Synthetic collagen type I α1 peptide 775–799 with C-terminal tyrosine (GLPGQRGVVGLPGQRGERGFPGLPGY; 4-hydroxyproline at peptide positions 3, 12, 21 and 24 (printed O); its leading GLO differs from the native GIA in peptide B. The text and PDB 3)
Kd [3]: 5 ± 1 µM

Compound: DN: Synthetic collagen type I α2 peptide 778–799 with C-terminal tyrosine (GAPGILGLPGSRGERGLPGVAGY; 4-hydroxyproline at peptide positions 3, 9 and 18 (printed O); C-terminal Tyr added for UV quantification)
Kd [3]: 8 ± 2 µM

Compound: CC[C@H](C)[C@H](NC(=O)CNC(=O)[C@H](CCCCN)NC(=O)[C@H](Cc1ccccc1)NC(=O)CNC(=O)[C@@H]1C[C@@H](O)CN1C(=O)[C@H](CC(C)C)NC(=O)CNC(=O)[C@@H]1C[C@@H](O)CN1C(=O)[C@@H](NC(=O)CNC(=O)[C@@H]1C[C@@H](O)CN1C(=O)[C@H](Cc1ccccc1)NC(=O)CN)[C@@H](C)O)C(=O)N[C@@H](CCCNC(=N)N)C(=O)NCC(=O)N[C@@H](Cc1c[nH]cn1)C(=O)N[C@@H](CC(N)=O)C(=O)NCC(=O)N[C@@H](CC(C)C)C(=O)N[C@@H](CC(=O)O)C(=O)NCC(=O)N[C@@H](Cc1ccc(O)cc1)C(=O)O [CN] (H-GF[Hyp]GT[Hyp]GL[Hyp]GFKGIRGHNGLDGY-OH)
Kd [2]: 2000 ± 200 µM

Now from value to compound:

Kd [1]: 5.8 ± 1 µM
Compound: 5FAM-GPQGLLGA[Hyp]GILGL[Hyp]GSRGERGL[Hyp]GVAGAVGEPGPLGIAGP[Hyp]GARGP[Hyp]G [D]

Kd [1]: 97.9 ± 8.2 µM
Compound: 5FAM-GPQGARGL[Hyp]GTAGL[Hyp]GMKGHRGFSGLDGAKGDAGPAGPKGE[Hyp]GS[Hyp]GENG [A]

Kd [2]: 143 ± 17.3 µM
Compound: CSCC[C@H](NC(=O)CNC(=O)[C@@H]1C[C@@H](O)CN1C(=O)[C@H](CC(C)C)NC(=O)CNC(=O)[C@H](C)NC(=O)[C@@H](NC(=O)CNC(=O)[C@@H]1C[C@@H](O)CN1C(=O)[C@H](CC(C)C)NC(=O)CN)[C@@H](C)O)C(=O)N[C@@H](CCCCN)C(=O)NCC(=O)N[C@@H](Cc1c[nH]cn1)C(=O)N[C@@H](CCCNC(=N)N)C(=O)NCC(=O)N[C@@H](Cc1ccccc1)C(=O)N[C@@H](CO)C(=O)NCC(=O)N[C@@H](CC(C)C)C(=O)N[C@@H](CC(=O)O)C(=O)NCC(=O)N[C@@H](Cc1ccc(O)cc1)C(=O)O [AN] (H-GL[Hyp]GTAGL[Hyp]GMKGHRGFSGLDGY-OH)

Kd [4]: 98 µM
Kd [5]: 15 µM
Kd [6]: 26 µM
Kd [7]: 6 µM
Compound: gelatin-binding domain (GBD) of human fibronectin, 6FnI1-2FnII7-9FnI, residues 305-608 (from UniProt P02751 305-608) (domain or fragment)

Kd [8]: 97 µM
Compound: collagen type I alpha1 peptide BN with Val783 changed to serine, G778-G799 with C-terminal tyrosine

Kd [9]: 248 ± 11.6 µM
Compound: CC(C)C[C@H](NC(=O)CNC(=O)[C@H](CC(=O)O)NC(=O)[C@H](CC(C)C)NC(=O)CNC(=O)[C@H](CC(N)=O)NC(=O)[C@H](Cc1c[nH]cn1)NC(=O)CN)C(=O)N[C@@H](CCCCN)C(=O)NCC(=O)N[C@@H](CCC(N)=O)C(=O)N1C[C@H](O)C[C@H]1C(=O)NCC(=O)N[C@@H](C)C(=O)N1C[C@H](O)C[C@H]1C(=O)NCC(=O)N[C@H](C(=O)N[C@@H](CCCCN)C(=O)NCC(=O)N[C@@H](CCC(=O)O)C(=O)N1C[C@H](O)C[C@H]1C(=O)NCC(=O)N[C@@H](C)C(=O)N1C[C@H](O)C[C@H]1C(=O)NCC(=O)N[C@@H](CCC(=O)O)C(=O)N[C@@H](CC(N)=O)C(=O)NCC(=O)N[C@@H](Cc1ccc(O)cc1)C(=O)O)C(C)C [CC] (H-GHNGLDGLKGQ[Hyp]GA[Hyp]GVKGE[Hyp]GA[Hyp]GENGY-OH)
